Columns and labels:
male Wistar rats = assay: Object recognition task (ORT), scopolamine induced memory deficit; assay type: in vivo
Protocol: Memory acquisition processes are investigated using the object recognition test (ORT).
Twenty four 3-4 month old male Wistar rats (Charles River, Sulzfeld, Germany) were used for the study. All animals were housed individually in standard green line Tecniplast IVC cages on stardust bedding. The animals were housed on a reversed 12/12 h light/dark cycle (lights on from 07:00 pm to 07:00 am) and had free access to food and water. The rats were housed and tested in the same room. A radio, playing softly, provided background noise in the room. All testing was performed between 09:00 am and 06:00 pm.
Drugs were prepared daily, except as indicated otherwise. Roflumilast (Takeda, Konstanz, Germany, MW 403.21) was dissolved in 98% methylcellulose solution (0.5% methylcellulose) and 2% Tween 80. Roflumilast in doses of 0 (vehicle), 0.0001, 0.0003, 0.001, 0.003, 0.01 and 0.03 mg/kg was administered intraperitonally (ip, injection volume 1 ml/kg). […] All compounds were administered 30 min before T1.
The testing order of conditions was determined randomly. The experimenter was blind of testing protocol. A within design was used and all treatment conditions were balanced over rats. The ORT was performed as described elsewhere (Ennaceur and Delaceur, 1988, Behav Brain Res, Vol 31, pp 47-59; Akkerman et al; 2012, Behav Brain Res, Vol 232, pp 335-347). The apparatus consisted of a circular arena, 83 cm in diameter. The back half of the 40 cm high wall was made of grey PVC and the front was made of transparent PVC. Fluorescent red tubes and a light bulb provided a constant illumination of about 20 lux on the floor of the apparatus. The light intensity was equal in the different parts of the apparatus.
Two objects were placed in symmetrical positions at the mid-line between the gray and transparent halves of the arena, about ten centimeters away from wall. Four different sets of objects were available: 1) a standard 1 L brown transparent glass bottle (diameter 10 cm, height 22 cm) filled with water, 2) a metal cube (10.0×5.0×7.5 cm) with two holes (diameter 1.9 cm), 3) a cone consisting of a gray PVC base (maximal diameter 18 cm) with a collar on top made of brass (total height 16 cm), and 4) an aluminum cube with a tapering top (13.0×8.0×8.0 cm). Objects were presented to the animals in a balanced manner to avoid object or place biases. Rats were unable to displace the objects.
A test session comprised two trials, each with durations of 3 min. During the learning trial (T1) the apparatus contains two identical objects (object a1 and a2). Rats were always introduced into the apparatus with their nose towards the transparent wall segment (i.e. facing outwards to the front of the arena). Subsequently, rats were put back in its home cage for a 1 h interval. After the retention interval, rats were put back into the arena for the […] (T2). In T2, the two objects from T1 were replaced by one identical copy (a3) and a different novel object (b). The times spent in exploring each object during T1 and T2 were recorded manually on a personal computer.
Exploration was defined in the following manner: directing the nose to the object at a distance of no more than 2 cm and/or touching the object with the nose. Sitting on the object was not considered as exploratory behavior. In order to avoid the presence of olfactory cues, the objects were thoroughly cleaned with a 70% ethanol solution before each trial.
Prior to compound testing, the animals were handled for 5 min on 2 consecutive days and allowed to explore the ORT arena, also for 5 min. Subsequently, the animals were accustomed to the complete ORT testing procedure without receiving any injection.
The readout parameters of the object recognition task are the times that rats spent on exploring each object during T1 and T2. The exploration time (in seconds) of each object during T1 are presented as “a1” and “a2”.

rats [1] = conditions: cited from earlier work
rats [2] = conditions: cited from earlier work; remark: listed apart in the source
phosphodiesterase 4 = conditions: in humans after roflumilast; cited from earlier work
[3] = assay type: in vivo, human; conditions: once a day (24 h) repeated dosing
Protocol: In the above-indicated clinical trial roflumilast was administered once in a single oral dose of 100 mcg, 300 mcg or 1000 mcg. Due to the pharmacokinetics of roflumilast and its metabolite roflumilast-N-oxide and the median plasma half-life of these compounds the steady state plasma concentration levels in a once a day (24 h) repeated dosing regimen of roflumilast/roflumilast-N-oxide is about two-fold compared to the plasma concentration levels following a once a day single dosing.

[4] = assay type: in vivo, human; conditions: plasma, single dose
Description: An interim analysis has been performed based on the data of 9 subjects of the Impaired Elderly group and 4 subjects of the Healthy Elderly group. For this purpose, cognitive battery test scores (VLT, SMT, Stroop task and BL-VAS) and concentrations of roflumilast and roflumilast-N-oxide in plasma have been analysed and summarized by dose over each scheduled sampling time using descriptive statistics.

[5] = test system: xylazine/ketamine induced α2-adrenergic receptor-mediated anesthesia; conditions: in vivo, 0.3 mg/kg
Description: Since emesis is a typical side-effect of PDE4 inhibitors the emetic potential of roflumilast and rolipram was investigated in parallel using the xylazine/ketamine induced α2-adrenergic receptor-mediated anesthesia test. The results confirmed that the two phosphodiesterase 4 inhibitors have different effects on emesis.

male C57BL/6NCrl mice = assay: Object Location Task (OLT), spatial memory, 24 h retention interval; assay type: in vivo; conditions: for d2 index, discrimination index for T2: 3 h after T1, 24 h interval
Description: The objective of this study was to evaluate the cognitive improvement effects of Roflumilast on spatial memory employing Object Location Task (OLT) in male C57BL/6NCrl mice. Roflumilast was compared with data of the already established PDE4 inhibitor Rolipram in the same model.
Twenty-four 7 month-old male C57BL/6NCrl mice (Charles River, L'Arbresle, France) were used (average body weights: 27.6 g). The animals were kept under a 12/12-hour light/dark cycle (lights on from 07.00 pm to 07.00 am) with free access to food and water. All testing was done between 09.00 am and maximally 06.00 pm.
Both rolipram (Sigma-Aldrich St. Louis, USA; MW 275.34) and roflumilast (Biocrea, Radebeul, Germany; MW 403.21) were dissolved in dimethylsulfoxide (DMSO) and kept at 4° C.; this stock solution was used for further dilutions in 0.5% methylcellulose. Each of rolipram and roflumilast is used in form of its free base. All injected solutions consisted of 0.5% methylcellulose with a fixed DMSO percentages (1.2%) (vehicle).
For the Object Location Task (OLT), doses of 0.01 mg/kg, 0.03 mg/kg and 0.1 mg/kg of Rolipram or Roflumilast or vehicle were administered subcutaneously (s.c.). Based on previous findings, PDE4 inhibitor single administration was performed 3 hours after the first trial as this has an optimum effect on object memory performance. The injection volume was 5 μl/g.
The OLT apparatus consisted of a circular arena, 40 cm in diameter. Half of the 40 cm transparent polyvinyl chloride wall was covered from the outside with white paper. Two objects were placed symmetrically about 10 cm away from the wall on the separation line, between the transparent and covered side of the arena. Four different sets of objects were available: (1) a cone made of brass (maximal diameter 6 cm and total height 3.8 cm), (2) a transparent glass bottle (diameter 2.7 cm, height 8.5 cm) filled with sand and water, (3) a massive metal cube (2.5 cm×5 cm×7.5 cm) with two holes (diameter 1.5 cm), and (4) a massive aluminum cube with a tapering top (4.5 cm×4.5 cm×8.5 cm).
A testing session comprised two trials of 4 minutes. Before each trial, mice were placed in an empty Makrolon cage (incubation cage) for the same amount of time as the trial (4 min). During the first trial (T1), two identical objects were placed symmetrically about 10 cm away from the wall on the separation line between the transparent and covered side of the arena. After the first exploration period of 4 min, the mouse was put back in its home cage. Mice then received treatment at 3 hours post T1. Subsequently, after a predetermined delay interval (24 h), the mouse was placed in the apparatus for the second trial of 4 min (T2). Two identical objects as in T1 were used; one object was placed in the previously used position, whereas the other was placed in a novel position. The novel position of the object could either be a fixed distance towards the front or a fixed distance towards the back of the arena for both objects. The times spent exploring each object during T1 and T2 were recorded manually using a personal computer. All objects and locations were used in a balanced manner to exclude possible object and/or location preferences. To avoid olfactory cues, the objects were thoroughly cleaned with 70% ethanol after each trial. The testing order of conditions was determined randomly.
The measurements reflected the time spent by the mice in exploring each object during T1 and T2. The time spent in exploring the two identical samples in T1 were represented by ‘a1’ and ‘a2’, respectively. The time spent in exploring the sample and the new object in T2 were represented by ‘a’ and ‘b’, respectively. From these exploration times the following variables were calculated: e1, e2, and d2 (Table 1). The d2 index is a relative measure of discrimination corrected for exploratory activity. […]

COc1cc2c(cc1OC)C(=O)C(CC1CCN(Cc3ccccc3)CC1)C2.Cl (racemic) [donepezil, (±)-2,3-dihydro-5,6-dimethoxy2-[[1-(phenylmethyl)-4-piperidinyl]methyl]-1H-inden-1-one]
d2 (male Wistar rats; scopolamine 0.1 mg/kg + donepezil 0.1 mg/kg p.o.): 0.04

O=C(NC1CC1)c1cn(-c2cccc(-c3ccc([C@@H]4C[C@H]4C(=O)O)c(F)c3)c2)c2ncccc2c1=O [MK-0952]
Water Maze DMTP test (in words) (rats [1]): improvement
novel object recognition (in words) (rats [2]): improvement of novel object recognition

O=C(Nc1c(Cl)c[n+]([O-])cc1Cl)c1ccc(OC(F)F)c(OCC2CC2)c1 [roflumilast-N-oxide, 3-cyclopropylmethoxy-4-difluoromethoxy-N-(3,5-dichloro-1-oxypyrid-4-yl)benzamide]
share of overall phosphodiesterase 4 inhibition (phosphodiesterase 4): more than 90%
steady state plasma concentration levels compared to single dosing [3]: about two-fold
exposure [4]: consistent with those previously reported

COc1ccc(C2CNC(=O)C2)cc1OC1CCCC1 (stereo not shown) [rolipram]
emetic potential [5]: strong emetic potential
d2 index, discrimination index for T2 (male C57BL/6NCrl mice; 0.01 mg/kg s.c.): 0.08
d2 index, discrimination index for T2 (male C57BL/6NCrl mice; 0.03 mg/kg s.c.): 0.13
d2 index, discrimination index for T2 (male C57BL/6NCrl mice; 0.1 mg/kg s.c.): 0.07
dose effective in improving spatial memory (male C57BL/6NCrl mice; s.c.): 0.03 mg/kg

CN1[C@@H]2C[C@@H](OC(=O)[C@H](CO)c3ccccc3)C[C@H]1[C@@H]1O[C@@H]12 [scopolamine]
d2 (male Wistar rats; scopolamine 0.1 mg/kg + veh + veh, rof + dpz study): −0.04
d2 (male Wistar rats; scopolamine 0.1 mg/kg ip + vehicle, dose response study): 0.01

Reference: patent US20150051246A1 (priority 2013, published 2015)
